# Measured values reported in patent publication US9079895B2, “Morpholino compounds, uses and methods” (University of Dundee, priority 2012, dated 2015).
# Key:
# Details in all cases: average of at least two experiments
# [1] = target: Alpha1A adrenergic receptor (Homo sapiens (Human), UniProt P35348); assay: Secondary radioligand binding assay, Alpha1A; design: key to Ki Alpha1A: “—” indicates that a binding interaction was not detected
# From the text: 1. Secondary Radioligand Binding Assays The detailed experimental protocols for the radioligand and functional receptor assays are available on the NIMH PDSP website at http://pdsp.med.unc.edu/UNC-CH %20Protocol %20Book.pdf. Raw data (dpm) representing total radioligand binding (i.e. specific+non-specific binding) are plotted as a function of the logarithm of the molar concentration of the competitor (i.e. test or reference compound). […] C. Adrenergic Receptors: α1A, α1B, α2A, α2B, α2C, β1, β2, β3 Assay Buffers: For α1 receptors, α1 Binding Buffer (20 mM Tris-HCl, 145 mM NaCl, pH 7.4); for α2 receptors, α2 Binding Buffer (50 mM Tris-HCl, 5 mM MgCl2, pH 7.7); for β receptors, β Binding Buffer (50 mM Tris-HCl, 3 mM MnCl2, pH 7.7) Membrane Fraction Source: Transiently or stably transfected cell lines (e.g. HEK293, COS, CHO, NIH3T3) Protocol adapted from Arango et al. […] (1990), Gen. Psychiatry, 47: 1038-1047. The method is carried out in the manner described for the serotonin receptor assay above, except where described below. Eleven dilutions (5× assay concentration) of the test and reference (see Table 20) compounds are prepared in the appropriate buffer by serial dilution, as previously described. Radioligand is diluted to five times the assay concentration (see Table 21) in the appropriate buffer. […] Four rapid 500-μl washes are performed with chilled distilled water (for α1 and β receptors) or 0.1% polyethyleneimine (for α2 receptors) to reduce non-specific binding. Filters are placed in 6 ml scintillation tubes and allowed to dry overnight and the samples are treated to obtain data as described above. [table]
# [2] = target: 5HT1e receptor (Homo sapiens (Human), UniProt P28566); assay: Secondary radioligand binding assay, 5HT1e; design: key: “—” indicates that a binding interaction was not detected;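 further: competition binding against a radioligand on membranes from transfected cell lines, 1.5 h at room temperature, bound radioactivity counted by liquid scintillation after filtration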
# Protocol: (§8) Assay Buffer: Standard Binding Buffer (50 mM Tris-HCl, 10 mM MgCl2, 1 mM EDTA, pH 7.4)
# (§9) Membrane Fraction Source: Transiently or stably transfected cell lines (e.g., HEK293, COS, CHO, NIH3T3)
# [3] = target: dopamine D5 receptor (Homo sapiens (Human), UniProt P21918); assay: Secondary radioligand binding assay, D5; design: key to Ki D5: “—” indicates that a binding interaction was not detected
# Protocol: (§1) 1. Secondary Radioligand Binding Assays
# (§2) The detailed experimental protocols for the radioligand and functional receptor assays are available on the NIMH PDSP website at http://pdsp.med.unc.edu/UNC-CH %20Protocol %20Book.pdf.
# (§3) Radioligand is diluted to five times the assay concentration (see Table 18) in Standard Binding Buffer. Typically, the assay concentration of radioligand is a value between one half the KD and the KD of a particular radioligand at its target. 50 μl aliquots of radioligand are dispensed into the wells of a 96-well plate containing 100 μl of Standard Binding Buffer. Then, duplicate 50 μl aliquots of the test and reference compound dilutions are added.
# (§4) The 250 μl reactions are incubated at room temperature and shielded from light (to prevent photolysis of light-sensitive ligands) for 1.5 hours, then harvested by rapid filtration onto Whatman GF/B glass fiber filters pre-soaked with 0.3% polyethyleneimine using a 96-well Brandel harverster. Four rapid 500 μl washes are performed with chilled Standard Binding Buffer to reduce non-specific binding. Filters are placed in 6 ml scintillation tubes and allowed to dry overnight. The next day, 4 ml of EcoScint scintillation cocktail (National Diagnostics) are added to each tube. The tubes are capped, labeled, and counted by liquid scintillation counting. […] The filter mats are dried, then scintillant is melted onto the filters and the radioactivity retained on the filters is counted in a Microbeta scintillation counter.
# (§5) Raw data (dpm) representing total radioligand binding (i.e. specific+non-specific binding) are plotted as a function of the logarithm of the molar concentration of the competitor (i.e. test or reference compound).
# (§6) B. Dopamine Receptors: D1, D2, D3, D4, D5 Assay Buffers: Dopamine Binding Buffer (50 mM NaCl, 50 mM HEPES-HCl, 5 mM MgCl2, 0.5 mM EDTA, pH 7.4) Membrane Fraction Source: Transiently or stably transfected cell lines (e.g. HEK293, COS, CHO, NIH3T3)
# (§7) The method is carried out in the manner described for the serotonin receptor assay above. Eleven dilutions (5× assay concentration) of the test and reference (see Table 19) compounds are prepared in Dopamine Binding Buffer by serial dilution, as previously described. Radioligand is diluted to five times the assay concentration (see Table 20) in Dopamine Binding Buffer.
# [4] = target: 5HT3 receptor (Homo sapiens (Human), UniProt P46098); assay: Secondary radioligand binding assay, 5HT3; design: key: “—” indicates that a binding interaction was not detected;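 further: radioligand competition binding on membranes from transfected cell lines, 1.5 h incubation at room temperature, filter-retained radioactivity measured by liquid scintillation counting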
# Protocol: as §8, §9
# [5] = target: 5HT1d receptor (Homo sapiens (Human), UniProt P28221); assay: Secondary radioligand binding assay, 5HT1d; design: key to Ki 5HT1d: “—” indicates that a binding interaction was not detected;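 further: competition binding against a radioligand on membranes from transfected cell lines, 1.5 h at room temperature, filter-retained radioactivity counted by liquid scintillation, total binding plotted versus log competitor concentration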
# Protocol: as §8, §9
# [6] = target: 5HT5 receptor (Homo sapiens (Human), UniProt P47898); assay: Secondary radioligand binding assay, 5HT5; design: key: “—” indicates that a binding interaction was not detected;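 further: competitive radioligand displacement on membranes from transfected cell lines, incubated at room temperature in the dark, filter-retained radioactivity counted by liquid scintillation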
# Protocol: as §8, §9
# [7] = target: 5HT2b receptor (Homo sapiens (Human), UniProt P41595); assay: Secondary radioligand binding assay, 5HT2b; design: key to Ki 5HT2b: “—” indicates that a binding interaction was not detected;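 further: competition binding against a radioligand on membranes from transfected cell lines, 1.5 h incubation at room temperature, filter-retained radioactivity counted by liquid scintillation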
# Protocol: as §8, §9
# [8] = target: dopamine D2 receptor (Homo sapiens (Human), UniProt P14416); assay: Secondary radioligand binding assay, D2; design: key to Ki D2: “—” indicates that a binding interaction was not detected
# Protocol: as §1, §2, §3, §4, §5, §6, §7
# 5HT1e receptor, sequence (P28566 whole entry): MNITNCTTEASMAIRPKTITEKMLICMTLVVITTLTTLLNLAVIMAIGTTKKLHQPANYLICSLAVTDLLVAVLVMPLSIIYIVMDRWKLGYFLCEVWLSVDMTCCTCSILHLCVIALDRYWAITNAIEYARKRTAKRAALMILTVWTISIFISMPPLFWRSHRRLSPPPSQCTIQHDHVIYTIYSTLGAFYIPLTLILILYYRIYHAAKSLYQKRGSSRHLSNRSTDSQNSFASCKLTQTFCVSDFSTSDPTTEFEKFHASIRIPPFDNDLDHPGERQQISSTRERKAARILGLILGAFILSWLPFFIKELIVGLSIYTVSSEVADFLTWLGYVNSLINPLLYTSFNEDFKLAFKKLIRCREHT
# 5HT1d receptor, sequence (P28221 whole entry): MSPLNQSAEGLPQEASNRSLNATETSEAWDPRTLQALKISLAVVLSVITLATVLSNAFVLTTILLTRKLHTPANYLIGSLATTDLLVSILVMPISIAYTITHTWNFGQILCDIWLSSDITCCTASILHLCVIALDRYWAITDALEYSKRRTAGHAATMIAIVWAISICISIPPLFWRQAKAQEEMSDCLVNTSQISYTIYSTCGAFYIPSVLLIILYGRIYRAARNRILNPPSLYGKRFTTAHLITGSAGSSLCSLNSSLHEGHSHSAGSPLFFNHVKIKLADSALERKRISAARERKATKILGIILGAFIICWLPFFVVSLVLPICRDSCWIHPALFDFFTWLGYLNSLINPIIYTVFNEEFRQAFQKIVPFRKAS
# 5HT5 receptor, sequence (P47898 whole entry): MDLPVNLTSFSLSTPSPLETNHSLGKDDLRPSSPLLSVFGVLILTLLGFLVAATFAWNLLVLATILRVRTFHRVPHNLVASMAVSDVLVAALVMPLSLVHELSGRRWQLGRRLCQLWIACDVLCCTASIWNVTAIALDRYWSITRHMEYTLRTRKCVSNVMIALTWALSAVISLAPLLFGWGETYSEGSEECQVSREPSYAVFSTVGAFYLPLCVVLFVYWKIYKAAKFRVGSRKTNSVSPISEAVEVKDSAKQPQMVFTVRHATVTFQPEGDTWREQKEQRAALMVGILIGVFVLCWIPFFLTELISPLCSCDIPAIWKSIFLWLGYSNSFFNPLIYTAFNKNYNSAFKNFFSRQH
# 5HT2b receptor, sequence (P41595 whole entry): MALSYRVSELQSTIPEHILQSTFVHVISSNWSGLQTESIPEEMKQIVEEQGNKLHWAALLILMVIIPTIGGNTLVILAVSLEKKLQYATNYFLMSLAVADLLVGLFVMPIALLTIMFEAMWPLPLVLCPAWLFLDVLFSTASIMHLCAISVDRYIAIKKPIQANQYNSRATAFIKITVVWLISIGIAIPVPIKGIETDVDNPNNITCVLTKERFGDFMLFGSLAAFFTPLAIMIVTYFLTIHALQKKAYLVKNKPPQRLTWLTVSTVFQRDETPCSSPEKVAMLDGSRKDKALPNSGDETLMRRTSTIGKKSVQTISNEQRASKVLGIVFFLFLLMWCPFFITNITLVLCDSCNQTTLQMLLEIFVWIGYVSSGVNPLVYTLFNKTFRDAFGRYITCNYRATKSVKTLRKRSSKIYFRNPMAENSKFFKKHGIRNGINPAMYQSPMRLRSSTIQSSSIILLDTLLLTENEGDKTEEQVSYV
# dopamine D5 receptor, sequence (P21918 whole entry): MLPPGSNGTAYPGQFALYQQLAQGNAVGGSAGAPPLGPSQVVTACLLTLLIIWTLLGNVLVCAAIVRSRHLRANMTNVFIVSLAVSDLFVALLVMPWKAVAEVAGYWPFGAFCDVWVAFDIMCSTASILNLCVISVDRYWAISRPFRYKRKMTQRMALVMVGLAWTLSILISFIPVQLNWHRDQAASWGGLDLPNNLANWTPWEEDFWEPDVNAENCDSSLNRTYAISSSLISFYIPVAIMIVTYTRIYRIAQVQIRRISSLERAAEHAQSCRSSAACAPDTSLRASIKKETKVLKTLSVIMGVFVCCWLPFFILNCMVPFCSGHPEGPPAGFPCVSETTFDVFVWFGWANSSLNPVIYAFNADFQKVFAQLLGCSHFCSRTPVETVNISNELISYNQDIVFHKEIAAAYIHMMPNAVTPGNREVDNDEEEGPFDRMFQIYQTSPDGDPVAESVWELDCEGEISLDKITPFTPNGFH
# dopamine D2 receptor, sequence (P14416 whole entry, species assumed): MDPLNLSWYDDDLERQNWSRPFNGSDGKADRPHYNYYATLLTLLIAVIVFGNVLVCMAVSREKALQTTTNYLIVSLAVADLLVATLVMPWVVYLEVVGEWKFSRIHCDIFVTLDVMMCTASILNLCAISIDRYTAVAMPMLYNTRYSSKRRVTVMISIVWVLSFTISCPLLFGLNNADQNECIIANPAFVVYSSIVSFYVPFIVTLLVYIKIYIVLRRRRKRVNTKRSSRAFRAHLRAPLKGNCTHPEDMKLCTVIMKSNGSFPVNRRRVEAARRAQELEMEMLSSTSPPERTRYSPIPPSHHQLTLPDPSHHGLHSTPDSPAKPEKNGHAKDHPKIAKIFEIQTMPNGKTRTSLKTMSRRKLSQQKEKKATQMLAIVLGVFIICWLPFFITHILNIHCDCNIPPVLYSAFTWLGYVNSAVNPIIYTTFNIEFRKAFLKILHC
# Alpha1A adrenergic receptor, sequence (P35348 whole entry): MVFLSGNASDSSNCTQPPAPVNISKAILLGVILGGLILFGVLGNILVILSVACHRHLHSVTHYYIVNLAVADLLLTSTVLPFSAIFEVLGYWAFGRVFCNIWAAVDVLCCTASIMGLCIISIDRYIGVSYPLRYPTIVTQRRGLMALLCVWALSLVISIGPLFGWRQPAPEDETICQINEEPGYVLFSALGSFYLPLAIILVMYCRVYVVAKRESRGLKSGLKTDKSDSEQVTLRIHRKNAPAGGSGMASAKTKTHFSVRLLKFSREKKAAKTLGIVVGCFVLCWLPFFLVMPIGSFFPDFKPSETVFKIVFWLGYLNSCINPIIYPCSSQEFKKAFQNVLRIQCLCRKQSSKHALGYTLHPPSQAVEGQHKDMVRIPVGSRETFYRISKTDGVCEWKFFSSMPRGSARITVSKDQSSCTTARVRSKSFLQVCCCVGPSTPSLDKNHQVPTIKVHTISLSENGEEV
# 5HT3 receptor, sequence (P46098 24-478): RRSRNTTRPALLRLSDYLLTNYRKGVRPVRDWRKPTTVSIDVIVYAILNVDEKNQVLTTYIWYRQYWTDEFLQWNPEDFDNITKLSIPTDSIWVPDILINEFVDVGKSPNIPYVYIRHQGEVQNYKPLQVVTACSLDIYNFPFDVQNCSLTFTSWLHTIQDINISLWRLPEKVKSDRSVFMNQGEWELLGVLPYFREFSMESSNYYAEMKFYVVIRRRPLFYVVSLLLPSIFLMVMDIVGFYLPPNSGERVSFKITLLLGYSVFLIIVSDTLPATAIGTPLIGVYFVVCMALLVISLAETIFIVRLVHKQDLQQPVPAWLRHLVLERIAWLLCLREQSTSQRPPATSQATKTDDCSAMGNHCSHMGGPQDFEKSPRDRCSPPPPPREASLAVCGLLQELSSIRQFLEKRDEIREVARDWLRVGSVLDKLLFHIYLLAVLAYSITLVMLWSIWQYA
Structure (SMILES),Ki Alpha1A [1],Ki 5HT1e [2],Ki D5 [3],Ki 5HT3 [4],Ki 5HT1d [5],Ki 5HT5 [6],Ki 5HT2b [7],Ki D2 [8],Ki [7] [nM],Ki [8] [nM],Ki [1] [nM],Ki [5] [nM],Ki [3] [nM]
"Cc1ncccc1OC[C@@H]1CN(CCN2CCc3ccccc32)CCO1 [Compound 26s, (S)-4-(2-(Indolin-1-yl)ethyl)-2-(((2-methylpyridin-3-yl)oxy)methyl)morpholine]",—,—,—,—,—,—,—,—,,,,,
"O=C(CN1CCO[C@@H](COc2cccc(Cl)c2)C1)N1CCc2ccccc21 [Compound 22r, (R)-2-(2-((3-chlorophenoxy)methyl)morpholino)-1-(indolin-1-yl)ethanone]",—,—,—,—,—,—,,—,2360,,,,
"c1cncc(OC[C@H]2CN(CCN3CCc4ccccc43)CCO2)c1 [Compound 21r, (R)-4-(2-(Indolin-1-yl)ethyl)-2-((pyridin-3-yloxy)methyl)morpholine]",—,—,—,—,—,—,—,—,,,,,
"O=C(CN1CCO[C@H](COc2cccc(Cl)c2)C1)N1CCc2ccccc21 [Compound 22s, (S)-2-(2-((3-Chlorophenoxy)methyl)morpholino)-1-(indolin-1-yl)ethanone]",—,—,—,—,—,—,,—,1100,,,,
CC1Cc2ccccc2N1C(=O)CN1CCO[C@H](COc2cccc(Cl)c2)C1 (stereo partly shown) [Compound 64],—,—,—,—,—,—,,—,441,,,,
Cc1ncccc1OC[C@@H]1CN(CC(=O)N2c3ccccc3CC2C)CCO1.Cl (stereo partly shown) [Compound 60],—,—,—,—,—,—,,—,4610,,,,
"O=C(CN1CCO[C@H](COc2cccnc2)C1)N1CCc2ccccc21 [Compound 20s, (S)-1-(Indolin-1-yl)-2-(2-((pyridin-3-yloxy)methyl)morpholino)ethanone]",—,—,—,—,—,—,,—,7640,,,,
CC1Cc2ccccc2N1C(=O)CN1CCO[C@@H](COc2cccc(Cl)c2)C1 (stereo partly shown) [Compound 65],—,—,—,—,—,—,,—,333,,,,
Cc1ccccc1OC[C@H]1CN(CC(=O)N2c3ccccc3CC2C)CCO1 (stereo partly shown) [Compound 66],—,—,—,—,—,—,,—,770,,,,
"Cc1ccc(OC[C@H]2CN(CCN3CCc4ccccc43)CCO2)cn1 [Compound 28r, (R)-4-(2-(Indolin-1-yl)ethyl)-2-(((6-methylpyridin-3-yl)oxy)methyl)morpholine]",—,—,—,—,—,—,—,—,,,,,
"Cc1ccnc(C)c1OC[C@H]1CN(CCN2CCc3ccccc32)CCO1 [Compound 29r, (R)-2-(((2,4-Dimethylpyridin-3-yl)oxy)methyl)-4-(2-(indolin-1-yl)ethyl)morpholine]",—,—,—,—,—,—,,—,1330,,,,
"Cc1ccnc(OC[C@H]2CN(CCN3CCc4ccccc43)CCO2)c1 [Compound 17r, (R)-4-(2-(Indolin-1-yl)ethyl)-2-(((4-methylpyridin-2-yl)oxy)methyl)morpholine]",—,—,—,—,—,—,,—,788,,,,
"Clc1cccc(OC[C@H]2CN(CCN3CCc4ccccc43)CCO2)c1 [Compound 23r, (R)-2-((3-Chlorophenoxy)methyl)-4-(2-(indolin-1-yl)ethyl)morpholine]",—,—,—,—,—,—,,,,> 10000,,,
"COc1cccc(OC[C@@H]2CN(CC(=O)N3CCc4ccccc43)CCO2)c1 [Compound 24s, (S)-1-(Indolin-1-yl)-2-(2-((3-methoxyphenoxy)methyl)morpholino)ethanone]",—,—,—,—,—,—,,—,1650,,,,
Cc1ncccc1OC[C@H]1CN(CC(=O)N2c3ccccc3CC2C)CCO1 (stereo partly shown) [Compound 62],—,—,—,—,—,—,,—,5180,,,,
"Clc1cccc(OC[C@@H]2CN(CCN3CCc4ccccc43)CCO2)c1 [Compound 23s, (S)-2-((3-chlorophenoxy)methyl)-4-(2-(indolin-1-yl)ethyl)morpholine]",,—,—,—,,—,,,,1890,9040,1120,
"COc1cccc(OC[C@@H]2CN(CCN3CCc4ccccc43)CCO2)c1 [Compound 25s, (S)-4-(2-(Indolin-1-yl)ethyl)-2-((3-methoxyphenoxy)methyl)morpholine]",,—,,—,,—,,,,10000,8350,1980,8530
